# Assay results taken from PMC4718634, “Murine GPRC6A Mediates Cellular Responses to L-Amino Acids, but Not Osteocalcin Variants” (PLoS ONE, 2016).
# “Also recorded” adds a separate entry of the source.
# Legend:
# INS-1(832) cells = experiment: Label-free cell impedance, INS-1(832) cells; type: cell-based, rat; details: S1 Table
# In short: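 INS-1(832) cells seeded at 2 x 10^4/well, cultured 48 h in 11.1 mM glucose RPMI, then switched to EBSS containing 2.8 mM glucose for 2 h. Compound added in the same buffer; impedance captured and analysed as for HEK293 cells.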
# mouse pancreatic islets = experiment: Insulin release from mouse pancreatic islets; type: cell-based; details: OCN 0.03–100 ng/ml; both glucose concentrations; 90 min; n = 2; S3 Fig B
# Experimental: Islets were collagenase-isolated from mice (10 x C57Bl/6; 12–13 weeks; Charles River) and incubated overnight in RPMI (with 10% FBS (v/v), 10 mM HEPES, 100 U/ml penicillin, 100 μg/ml streptomycin, sodium pyruvate and 10 mM glucose) at 37°C in 5% CO2. Islets were seeded into a 96-well plate (4 / well) in Kreb’s buffer containing 2.8 mM glucose and washed twice with the same buffer. 200 μl test drugs were added in Kreb’s buffer with the required concentration of glucose and incubated at 37°C in 5% CO2 for 90 min. The plate was centrifuged for 10 s at 200 g, supernatant recovered and insulin levels detected as described above. This protocol was approved by the IDRS (Institut de Recherches Servier) Institutional Animal Care and Use Committee.
# Concentration-response data were analysed using a three or four parameter logistic function (Motulsky & Christopoulos, 2004) to generate estimates of agonist potency (LogEC50). Data for all HEK293 assays represent the mean ± SEM of at least three independent experiments (except cell impedance, n = 2). For GLP-1 release, the data represent mean ± SEM of three to five independent experiments (except for OCN, wash; n = 2). For insulin release assays, data represent the mean ± SEM of three independent experiments (except for islet studies; n = 2). Insulin release data were normalised to the response to vehicle in either low or high [glucose]. Statistical analysis for GLP-1 release data were performed by one-way ANOVA, followed by Sidak’s multiple comparisons test (treating wash / no wash datasets separately). Statistical analyses for insulin release data were performed by two-way ANOVA (with [glucose] and drug treatment as group variables), followed by Sidak’s multiple comparisons test. Where only high [glucose] groups were evaluated, statistical analysis was by one-way ANOVA followed by Sidak’s multiple comparisons test.
# [1] = tested on: immortalised cell lines (e.g. pancreatic β-cells); details: ref [12], cited from earlier work
# Source text: (§1) Additional interest in GPRC6A has emerged due to several studies reporting that it mediates the metabolic and endocrine effects of the de-carboxylated form of the osteoblast-derived peptide, osteocalcin (OCN). […] By examining cell signalling events downstream of recombinantly expressed mouse GPRC6A and phenotypic assays in cell lines endogenously expressing the Gprc6a transcript, we confirmed that GPRC6A is a receptor for basic L-amino acids, but were unable to detect any effect of OCN variants, irrespective of peptide species or source. GPRC6A has emerged in recent years as an interesting target due to its putative role in med ...
# mice = details: [21], cited from earlier work
# Source text: as §1
# pancreatic islets = details: GPRC6A-dependent; ref [31]; cited from earlier work
# Source text: (§2) Given the range of OCN variants profiled, we propose that species and/or carboxylation status is unlikely to be a cause of the lack of activity in our assays. Other potential explanations are that the species of GPRC6A is critical or that HEK293 cells lack the necessary scaffolding and/or signalling proteins found in cells endogenously expressing GPRC6A. Unfortunately, human GPRC6A was not expressed at the cell surface in our cells, precluding a study of its pharmacology. However, we identified a range of immortalised murine entero-endocrine and pancreatic β-cell lines that express Gprc6a mRNA ...
# βTC-6 cells = details: GPRC6A-dependent; ref [12]; cited from earlier work
# Source text: as §2
# [2] = tested on: un-induced FlpIn-TREx-HEK293-mGPRC6A cells; experiment: Label-free cell impedance, un-induced FlpIn-TREx-HEK293-mGPRC6A cells; type: cell-based; details: Fig 4
# Experimental: 2.5 x 10^7 FlpIn-TREx-HEK293-mGPRC6A cells were seeded in a T175 flask and incubated overnight at 37°C in 5% CO2. Cells were then transfected with 35 μg of plasmid DNA (GαqG66D) with Lipofectamine LTX according to manufacturer's instructions, then incubated for 24h at 37°C in 5% CO2. Prior to the experiment, a background reading for each E-plate 96 (Bio-Rad, CA, USA) was measured after addition of 100 μl DMEM + 10% FBS per well. Cells were recovered using Versene and seeded at a 10^5 cells/well density in 200 μl DMEM + 10% FBS (containing 1 μg/ml tetracycline where indicated). Cells were washed 2 x 2 h in HBSS buffer (pH 7.2) containing 20 mM HEPES, 1 mM CaCl2 and 0.1% BSA (w/v) in a total volume of 180 μl. Test compounds (20 μl at 10x final concentration) were added to the plate and cell impedance was monitored for 3 h. Cell index was normalised to the buffer response (minus the baseline response at zero time point).
compound,measurement,setting,value
"OCN: osteoblast-derived peptide, osteocalcin; variant not specified at the place (YLYQWLGAPVPYPDPLEPRREVCELNPDCDELADHIGFQEAYRRFYGPV; UniProt P02818 52-100, looked up)",xCELLigence response (summary),INS-1(832) cells,xCELLigence – response to OCN
same,"insulin secretion, OCN",mouse pancreatic islets,no effect on insulin release; also recorded: failed to induce GSIS
same,insulin release,"[1]; blocked by siRNA targeting Gprc6a, [22]",OCN-mediated insulin and glucagon-like peptide (GLP)-1 release
same,insulin secretion in vitro and ex vivo,"[1]; [20], [21]",promoting insulin secretion in vitro and ex vivo
same,"β-cell proliferation, insulin release, insulin sensitivity, energy expenditure, testosterone synthesis","mice; mice, ref [20]","increase pancreatic β-cell proliferation, insulin release from pancreatic islets, insulin sensitivity and energy expenditure and testosterone synthesis in the gonads in mice"
same,"β-cell proliferation, insulin sensitivity, energy expenditure","mice; ref [12], [20]","can increase pancreatic β-cell proliferation, insulin sensitivity and energy expenditure in vivo"
same,insulin secretion,pancreatic islets,increase insulin secretion from pancreatic islets
same,ERK1/2 phosphorylation,βTC-6 cells,engender ERK1/2 phosphorylation
NCCC[C@H](N)C(=O)O [L-ornithine],cell impedance (cell index) response,[2],only mGPRC6A-expressing cells responded to L-ornithine; also recorded: increases cellular impedance only in tetracycline-induced cells
